From ChEMBL document CHEMBL4304838, “Building Bridges in a Series of Estrogen Receptor Degraders: An Application of Metathesis in Medicinal Chemistry” (ACS Med Chem Lett, 2019)
≈ marks a conversion by molar mass, not a printed value.

Experiments:
[1] = Stability of the compound assessed as parent compound remaining in buffer at pH 7.4 measured after 8 days by 1H-NMR analysis; assay type: physicochemical; conditions: read-out: Stability
physchem = conditions: buffer, pH 7.4
in vitro [2] = conditions: human, hepatocytes
[3] = Half-life in rat at 0.5 mg/kg, iv; assay type: ADME, organism-based; conditions: in vivo
[4] = Volume of distribution at steady state in rat at 0.5 mg/kg, iv or 1 mg/kg, po; assay type: ADME, organism-based; conditions: in vivo, read-out: Vdss
[5] = Plasma clearance in rat at 0.5 mg/kg, iv or 1 mg/kg, po; assay type: ADME, organism-based
[6] = Half-life in rat at 1 mg/kg, po; assay type: ADME, organism-based; conditions: in vivo
[7] = Stability of the compound assessed as parent compound remaining in buffer at pH 7.4 measured after 3 days by 1H-NMR analysis; assay type: physicochemical; conditions: read-out: Stability
[8] = Acid dissociation constant, pKa of the compound in potassium chloride at 20 degC by UV absorption analysis; assay type: physicochemical
[9] = Base dissociation constant, pKa of the compound in potassium chloride at 20 degC by UV absorption analysis; assay type: physicochemical
[10] = Aqueous solubility of the compound in phosphate buffer at pH 7.4 at 25 degC after 24 hrs; assay type: physicochemical
Cytochrome P450 3A4 = Cytochrome P450 3A4 (Homo sapiens, UniProt P08684); test: Inhibition of CYP3A4 (unknown origin); assay type: ADME
Cytochrome P450 2D6 = Cytochrome P450 2D6 (Homo sapiens, UniProt P10635); test: Inhibition of CYP2D6 (unknown origin); assay type: ADME
Cytochrome P450 2C9 = Cytochrome P450 2C9 (Homo sapiens, UniProt P11712); test: Inhibition of CYP2C9 (unknown origin); assay type: ADME
Cytochrome P450 2C19 = Cytochrome P450 2C19 (Homo sapiens, UniProt P33261); test: Inhibition of CYP2C19 (unknown origin); assay type: ADME
Cytochrome P450 1A2 = biological target: T1, Cytochrome P450 1A2 (Homo sapiens, UniProt P05177); test: Inhibition of CYP1A2 (unknown origin); assay type: ADME
T1 sequence (P05177 whole entry): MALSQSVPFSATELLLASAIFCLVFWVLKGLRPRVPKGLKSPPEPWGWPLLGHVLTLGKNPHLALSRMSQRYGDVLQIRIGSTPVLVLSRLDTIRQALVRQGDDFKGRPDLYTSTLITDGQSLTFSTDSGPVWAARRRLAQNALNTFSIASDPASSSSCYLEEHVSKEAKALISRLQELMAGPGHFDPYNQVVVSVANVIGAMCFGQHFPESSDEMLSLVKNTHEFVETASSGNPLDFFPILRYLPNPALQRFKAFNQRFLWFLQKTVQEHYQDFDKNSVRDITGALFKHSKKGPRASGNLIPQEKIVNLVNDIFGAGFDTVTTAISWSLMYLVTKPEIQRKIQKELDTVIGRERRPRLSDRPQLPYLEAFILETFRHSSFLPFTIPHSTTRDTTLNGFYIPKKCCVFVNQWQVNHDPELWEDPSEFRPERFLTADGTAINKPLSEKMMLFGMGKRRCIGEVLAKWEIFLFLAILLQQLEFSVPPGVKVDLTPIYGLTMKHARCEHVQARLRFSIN

[11] = AUC in rat at 1 mg/kg, po; assay type: ADME, organism-based; conditions: in vivo
[12] = Oral bioavailability in rat at 1 mg/kg; assay type: ADME, organism-based; conditions: in vivo
Estrogen receptor [13] = biological target: T2, Estrogen receptor (Homo sapiens, UniProt P03372)
T2 sequence (P03372 whole entry): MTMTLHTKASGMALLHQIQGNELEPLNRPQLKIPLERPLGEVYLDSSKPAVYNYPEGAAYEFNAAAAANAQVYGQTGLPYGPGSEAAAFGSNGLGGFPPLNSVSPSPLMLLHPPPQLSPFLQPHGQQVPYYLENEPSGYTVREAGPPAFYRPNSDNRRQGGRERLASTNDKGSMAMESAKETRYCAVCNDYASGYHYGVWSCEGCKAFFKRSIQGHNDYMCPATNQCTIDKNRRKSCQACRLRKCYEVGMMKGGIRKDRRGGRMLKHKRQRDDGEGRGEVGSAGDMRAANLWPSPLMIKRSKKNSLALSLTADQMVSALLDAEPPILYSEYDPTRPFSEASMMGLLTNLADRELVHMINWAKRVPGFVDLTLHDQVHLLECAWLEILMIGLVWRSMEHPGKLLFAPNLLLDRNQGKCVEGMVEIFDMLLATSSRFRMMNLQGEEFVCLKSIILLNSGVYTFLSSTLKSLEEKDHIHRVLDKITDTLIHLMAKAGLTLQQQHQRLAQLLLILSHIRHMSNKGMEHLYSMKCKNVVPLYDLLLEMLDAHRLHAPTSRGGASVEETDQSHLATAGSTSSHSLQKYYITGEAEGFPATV
Description: Induction of ERalpha degradation in human MCF7 cells assessed as downregulation of ER alpha receptor expression measured after 18 to 22 hrs by immunofluorescence assay

[14] = human, plasma
Description: Fraction unbound in human plasma by equilibrium dialysis method

in vitro [15] = conditions: rat, hepatocytes
Estrogen receptor [16] = biological target: T2, Estrogen receptor; test: biochemical
Description: Displacement of fluorescent labelled fluormone ES2 from human recombinant GST tagged ER alpha LBD ( 282 to 595 residues) expressed in baculovirus infected insect cells measured after 20 mins by TR-FRET Lanthascreen assay

[17] = Stability of the compound assessed as parent compound remaining in buffer at pH 7.4 measured after 4 days by 1H-NMR analysis; assay type: physicochemical; conditions: read-out: Stability

Chain of Cytochrome P450 2C9 (P11712 whole entry): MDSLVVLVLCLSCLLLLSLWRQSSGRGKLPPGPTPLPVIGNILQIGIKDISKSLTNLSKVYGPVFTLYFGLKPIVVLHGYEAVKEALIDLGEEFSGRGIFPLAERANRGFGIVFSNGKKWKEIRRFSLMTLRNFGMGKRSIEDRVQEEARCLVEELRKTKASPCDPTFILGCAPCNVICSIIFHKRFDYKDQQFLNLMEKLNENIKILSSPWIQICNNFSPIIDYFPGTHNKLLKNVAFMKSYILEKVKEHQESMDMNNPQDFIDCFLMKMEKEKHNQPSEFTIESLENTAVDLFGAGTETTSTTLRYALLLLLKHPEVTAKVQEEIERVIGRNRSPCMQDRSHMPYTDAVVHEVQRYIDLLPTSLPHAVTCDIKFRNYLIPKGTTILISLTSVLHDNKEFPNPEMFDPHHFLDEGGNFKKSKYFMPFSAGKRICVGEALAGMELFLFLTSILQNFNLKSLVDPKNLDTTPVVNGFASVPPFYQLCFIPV
Chain of Cytochrome P450 2C19 (P33261 whole entry): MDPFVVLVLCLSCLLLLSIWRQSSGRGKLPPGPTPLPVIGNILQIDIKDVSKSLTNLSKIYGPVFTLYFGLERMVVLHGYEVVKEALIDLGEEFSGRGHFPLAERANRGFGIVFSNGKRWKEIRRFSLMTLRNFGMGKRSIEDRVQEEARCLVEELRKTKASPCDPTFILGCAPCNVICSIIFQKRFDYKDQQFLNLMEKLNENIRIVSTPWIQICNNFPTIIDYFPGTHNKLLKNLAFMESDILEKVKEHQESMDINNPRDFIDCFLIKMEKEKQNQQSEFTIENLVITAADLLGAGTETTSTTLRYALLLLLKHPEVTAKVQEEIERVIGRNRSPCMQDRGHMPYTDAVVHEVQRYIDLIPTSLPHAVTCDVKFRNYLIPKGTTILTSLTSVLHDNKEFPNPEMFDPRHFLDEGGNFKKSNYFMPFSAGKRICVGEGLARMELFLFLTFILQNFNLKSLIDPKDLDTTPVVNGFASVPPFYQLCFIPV
Chain of Cytochrome P450 3A4 (P08684 whole entry): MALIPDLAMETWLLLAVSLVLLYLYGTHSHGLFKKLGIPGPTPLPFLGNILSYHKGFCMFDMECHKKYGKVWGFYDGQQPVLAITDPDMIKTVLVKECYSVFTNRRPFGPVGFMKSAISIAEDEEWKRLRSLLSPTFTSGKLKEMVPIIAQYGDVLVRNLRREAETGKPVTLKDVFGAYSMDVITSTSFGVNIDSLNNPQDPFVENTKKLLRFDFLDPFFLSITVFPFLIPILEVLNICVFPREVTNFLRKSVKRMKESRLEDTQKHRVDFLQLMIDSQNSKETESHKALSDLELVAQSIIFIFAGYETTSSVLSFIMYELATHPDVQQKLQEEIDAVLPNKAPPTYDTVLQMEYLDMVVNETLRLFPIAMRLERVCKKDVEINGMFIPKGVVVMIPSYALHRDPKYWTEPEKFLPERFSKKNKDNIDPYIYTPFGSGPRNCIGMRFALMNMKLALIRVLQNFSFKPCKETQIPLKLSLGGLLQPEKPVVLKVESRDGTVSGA
Chain of Cytochrome P450 2D6 (P10635 whole entry): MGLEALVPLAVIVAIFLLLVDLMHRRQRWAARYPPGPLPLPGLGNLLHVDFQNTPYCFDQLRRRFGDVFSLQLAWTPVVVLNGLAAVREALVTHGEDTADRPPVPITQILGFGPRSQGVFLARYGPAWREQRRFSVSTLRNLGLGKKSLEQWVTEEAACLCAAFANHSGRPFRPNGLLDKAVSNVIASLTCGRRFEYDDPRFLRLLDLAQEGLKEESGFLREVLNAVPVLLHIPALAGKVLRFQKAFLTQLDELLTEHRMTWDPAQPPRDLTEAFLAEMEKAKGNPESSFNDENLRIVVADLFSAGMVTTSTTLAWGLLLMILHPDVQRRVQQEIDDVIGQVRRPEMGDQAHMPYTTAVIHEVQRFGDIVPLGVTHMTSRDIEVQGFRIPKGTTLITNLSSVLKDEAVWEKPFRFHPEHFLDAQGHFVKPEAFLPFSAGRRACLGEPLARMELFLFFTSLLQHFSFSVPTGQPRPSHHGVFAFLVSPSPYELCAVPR

| SMILES | remaining at 192 h [1] [%] | logD (physchem) | hepatocyte CLint (in vitro [2]) [µL/min/1e6 cells] | IC50 (Estrogen receptor [13]) [nM] | Fu [14] [%] | hepatocyte CLint (in vitro [15]) [µL/min/1e6 cells] | IC50 (Estrogen receptor [16]) [nM] | other results |
| --- | --- | --- | --- | --- | --- | --- | --- | --- |
| C[C@@H]1Cc2c([nH]c3ccccc23)[C@@H](c2c(F)cc(OCCN3CC(CF)C3)cc2F)N1CC(C)(C)F | 100 | > 4.4 | < 1 | – | – | – | – | – |
| CC(C)(F)CN1[C@@H]2CCC[C@@]1(c1c(F)cc(/C=C/C(=O)O)cc1F)c1[nH]c3ccccc3c1C2 | – | 2.9 | 8 | 15.8 | 0.45 | 26 | 0.794 | half-life [3]: 168 min; Vd [4]: 1.6 L/kg; clearance [5]: 10 mL/min/kg; half-life [6]: 186 min; remaining at 72 h [7]: 100%; pKa [8]: 3.8; pKa [9]: 5.7; solubility at 24 h [10]: 734 µM (≈ 344 µg/mL); IC50 (Cytochrome P450 3A4): > 30 µM; IC50 (Cytochrome P450 2D6): > 30 µM; IC50 (Cytochrome P450 2C9): > 30 µM; IC50 (Cytochrome P450 2C19): > 30 µM; IC50 (Cytochrome P450 1A2): > 30 µM; AUC [11]: 2.7 µM·h; bioavailability [12]: 100% |
| CC(C)(F)CN1[C@@H]2CCC[C@@]1(c1c(F)cc(OCCN3CC(CF)C3)cc1F)c1[nH]c3ccccc3c1C2 | 100 | 5.3 | 4 | 2 | 0.17 | 17 | 2 | – |
| CC(C)(F)CN1[C@@H]2C=CC[C@@]1(c1c(F)cc(/C=C/C(=O)O)cc1F)c1[nH]c3ccccc3c1C2 | 100 | 2.8 | 14 | 1.58 | 0.3 | 8 | 0.631 | – |
| C[C@@H]1Cc2c([nH]c3ccccc23)[C@@H](c2c(F)cc(/C=C/C(=O)O)cc2F)N1CC(C)(C)F [AZD-9496] | – | – | 31 | – | 0.26 | 5 | – | remaining at 72 h [7]: 92% |
| C[C@@H]1Cc2c([nH]c3ccccc23)[C@@](C)(c2c(F)cc(OCCN3CC(CF)C3)cc2F)N1CC(C)(C)F | 75 | > 4.4 | – | 0.251 | 0.05 | 18 | 1 | – |
| C[C@@H]1Cc2c([nH]c3ccccc23)[C@@](C)(c2c(F)cc(/C=C/C(=O)O)cc2F)N1CC(C)(C)F | – | 2.7 | 13 | 1.26 | 0.28 | 9 | 0.398 | remaining at 96 h [17]: 58% |
